# Test: Residence time / pharmacokinetics of pilocarpine in the tear fluid
# Parameters: species or system male New Zealand albino rabbits
# Details: rabbit, in vivo
# Source text: Specifically, all of the ophthalmic preparations employed in the tests shown herein contain 2.0% by weight of pilocarpine nitrate (PiNO3), but the control preparation referred to in the following table as RS (i.e. reference solution) is an aqueous solution without any thickening agent, while the preparation according to the invention, referred to below as "TSP", is formulated according to Example 2.1.
# All of the tests described herein have been carried out on male New Zealand albino rabbits weighing 3-3.5 kg, non anesthesized and kept in standard stabling conditions, at a temperature of 18-20° C. Both the miotic effect and the residence time of the drug in the tear fluid were measured after instillation (at the time=0) of 25 μl of the preparation under study in the lower conjunctival sac of one eye of the rabbits, while the other eye served as a control.
# In order to verify whether the product according to the invention was able to prolong, in comparison with other vehicles, the residence of the drug in the precorneal area, the following test was carried out: after instillation of one of the preparations under test, samples of tear fluid (1 μl) were collected, at suitable time intervals, from the rim portion of the lower conjunctival sac, using a microcapillary and avoiding any contact with the corneal epithelium. The tear fluid samples, transferred into microprobes, were diluted with water and analysed by HPLC.
# The results of said test are reported, in terms of pilocarpine concentration (μg/μl) detected in the tear fluid as a function of time, in Table 9 and in the corresponding FIG. 7.
# The differences in the performance of the various vehicles are better evidenced by the following table, reporting the pharmacokinetic parameters of pilocarpine in the tear fluid, in the various formulations, as calculated from the tests described above. The said parameters are as follows:
# Ke : apparent clearance velocity constant
# AUCrel : AUC relative to the reference solution
# t1/2 : half-life time of the drug in the tear fluid
# MRT: mean residence time of the drug in the tear fluid.
substance,measurement,setting,value
HPMC,AUC t3min→∞,,23.13 µg·min/µL
same,"AUCrel, AUC relative to the reference solution",,6.27
same,"Ke, apparent clearance velocity constant",,0.098 min⁻¹
same,"MRT, mean residence time",,8.83 min
same,increase in half-life with respect to the reference solution,,almost of double
same,pilocarpine concentration in the tear fluid,3 min,3.894 µg/µL
same,pilocarpine concentration in the tear fluid,5 min,1.9 µg/µL
same,pilocarpine concentration in the tear fluid,10 min,1.03 µg/µL
same,pilocarpine concentration in the tear fluid,15 min,0.583 µg/µL
same,pilocarpine concentration in the tear fluid,30 min,0.074 µg/µL
same,pilocarpine concentration in the tear fluid,45 min,0.025 µg/µL
same,pilocarpine concentration in the tear fluid,60 min,0.016 µg/µL

# Source: patent US6056950A, “Ophthalmic solutions viscosified with tamarind seed polysaccharide” (Farmigea S.p.A., priority 1996, dated 2000)
